Experimental data taken from article PMC9848259 (Journal of Enzyme Inhibition and Medicinal Chemistry, 2023).

How the values were obtained:
[1] = molecular target: T1, AChE (from the electric eel) (Electrophorus electricus, UniProt O42275); assay: biochemical; settings: for Selectivity for AChE: IC50(BuChE)/IC50(AChE); for IC50: means ± SD of three experiments
T1 construct: purchased Sigma Aldrich
Description: (§1) The capacity of the novel cyclopentaquinoline hybrids to inhibit AChE (from the electric eel) and BuChE (from equine serum) were determined by the modified colorimetric Ellman’s method[38]^,[39]. Both enzymes, DTNB – Ellman’s reagent (5,5′-dithiobis-(2-nitrobenzoic acid)), acetyltiocholine iodide (ATCI) were obtained from Sigma Aldrich. AChE and BuChE samples in phosphate buffer (PBS) pH 8.0 were incubated in 96-well plates in the presence of the substrate (ATCI), 76 µl of DTNB and the tested compound at various concentration at room temperature for 10 min (AChE) or eight minutes (BuChE).

[2] = molecular target: T2, BuChE (from equine serum) (Equus caballus, UniProt P81908); assay: biochemical; settings: for Selectivity for BuChE: IC50(AChE)/IC50(BuChE); for IC50: means ± SD of three experiments
T2 construct: purchased Sigma Aldrich; host or cells: equine serum
Description: as §1

Aβ42 = molecular target: T3, Aβ42 (Homo sapiens, UniProt P05067); assay: In cellulo β-amyloid assay, Th-S fluorescence in E. coli over-expressing Aβ42; assay type: cell-based, Escherichia coli; settings: 10 µM
T3 construct: expressed in transfected cells; host or cells: Escherichia coli BL21 (DE3), pET vector
Description: Inhibition assay in Escherichia coli cells over-expressing amyloid proteins. […] Escherichia coli competent cells BL21 (DE3) were transformed with the required pET vectors carrying the DNA sequence of Aβ42 peptide. Because of the addition of the initiation codon ATG in front of genes, the over-expressed Aβ42 contains an additional methionine residue at their N terminus. For overnight culture preparation, a colony of BL21 (DE3) bearing the plasmid to be expressed was inoculated in 10 ml of M9 minimal medium containing 50 μg/ml of kanamycin at 37 °C. […] The bacterial culture was then grown at 37 °C, with orbital agitation of 250 rpm. When the cell density reached OD600nm–0.6, 980 μL of the culture were transferred into 1.5 ml conical tubes containing 10 μL of the compound to be tested dissolved in DMSO, and 10 μL of 100 mM isopropyl 1-thio-β-D-galactopyranoside (IPTG). The final concentration of the compound was set to 10 μM. The samples were grown overnight at 37 °C under agitation at 1400 rpm, using a Thermomixer (Eppendorf, Hamburg, Germany). […]
The fluorescence normalisation was carried out considering as 100% the Th-S fluorescence of the bacterial cells expressing Aβ42 in the absence of drug, and 0% the Th-S fluorescence of the bacterial cells non-expressing Aβ42 (in absence of the protein production inductor, IPTG). […]

[3] = calibration substance; cited from earlier work
[4] = test system: Human hepatic stellate cells (HSCs); assay: in vitro; assay type: cell-based; settings: 0.1 µM, 24 h
Description: Human hepatic stellate cells (HSCs, Sciencell) were grown in the Stellate Cell Medium (Sciencell) supplemented with 2% Foetal Bovine Serum (Sciencell), 1% Stellate Cell Growth Supplement (Sciencell) and 1% penicillin/streptomycin solution (Sciencell). The cells were cultured in the incubator at 37 °C and 5% CO2. To start the experiment, the cells were seeded at a density of 5 × 10^3 cells/well in 96-well plates and incubated (37 °C, 5% CO2) for 24 h. After incubation, medium was removed from the wells and the cells were exposed to 100 µl of the compound over a range of concentrations (from 0.1 to 10 µM) or 100 µl of culture medium alone (blank control). The cells were then further incubated for 24 h. After this time, the medium was removed, the cells were washed with PBS and 50 µl of MTT solution (0.75 mg/ml) was added to each well. The plates were incubated in the dark at 37 °C for another two hours. The MTT solution was then removed from the wells and 100 µl of DMSO was added. The plates were incubated at room temperature for 10 min and then 5 µl of Sorensen Buffer was added to each well. The plates were swayed and the absorbance at 570 nm was measured with a microplate reader (Synergy H1, BioTek, Winooski, VT, USA). The cell viability was expressed as a percentage of the control values (blank control)[40]^,[46]^,[47].

SH-SY5Y cells [5] = assay: Neuroprotection against rotenone/oligomycin A, pre-incubation, MTT test; assay type: cell-based, human; settings: Rotenone/Oligomycin A 30/10 µM, compound 0.001 µM
SH-SY5Y cells [6] = assay: Neuroprotection against H2O2-induced oxidative stress, MTT test; assay type: cell-based, human; settings: H2O2 100 µM
SH-SY5Y cells [7] = assay: Neuroprotection against rotenone/oligomycin A, co-incubation, MTT test; assay type: cell-based, human; settings: Rotenone/Oligomycin A 30/10 µM
hyaluronidase = molecular target: T4, hyaluronidase (Bos taurus, UniProt Q2YDK3); assay: Hyaluronidase inhibition test (turbidimetric); assay type: biochemical
T4 sequence (Q2YDK3 36-553): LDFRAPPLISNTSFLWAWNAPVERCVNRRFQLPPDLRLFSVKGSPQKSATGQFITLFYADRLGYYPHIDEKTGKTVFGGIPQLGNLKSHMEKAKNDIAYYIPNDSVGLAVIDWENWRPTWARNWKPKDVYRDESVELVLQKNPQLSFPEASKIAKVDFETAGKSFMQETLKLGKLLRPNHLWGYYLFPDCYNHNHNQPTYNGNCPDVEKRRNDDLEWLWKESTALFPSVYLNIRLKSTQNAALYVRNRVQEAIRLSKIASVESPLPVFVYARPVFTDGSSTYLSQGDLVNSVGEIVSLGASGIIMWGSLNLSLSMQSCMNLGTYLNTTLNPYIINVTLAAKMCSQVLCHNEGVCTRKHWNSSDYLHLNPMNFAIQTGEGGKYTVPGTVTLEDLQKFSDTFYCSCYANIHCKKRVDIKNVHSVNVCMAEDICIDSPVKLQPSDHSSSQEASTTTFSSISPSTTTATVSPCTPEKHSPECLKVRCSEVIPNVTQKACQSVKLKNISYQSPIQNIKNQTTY
Description: Hyaluronidase inhibition was established by turbidimetry according to USP XXII-NF XVII[43], which was further adapted to use in 96-well plates by Piwowarski et al.[44] and the principle of this assay is based on the following reaction: hyaluronic acid→hyaluronidase depolymerization products+[…]
The ability to inhibit hyaluronidase was assessed using a turbidimetric method based on spectrophotometric measurement of turbidity resulting from the formation of hyaluronan-bovine albumin complexes in an acidic environment. The analysis was performed against a positive control. Briefly, 20 µl of the tested compound in monosodium phosphate buffer (pH 7.0) was added to 40 µl of hyaluronidase solution (22.55 U/ml, Sigma Aldrich) in the same buffer. The mixture was incubated for 10 min in the dark at 37 °C. Next, 40 µl of hyaluronic acid solution (0.03%, Sigma Aldrich) in monosodium phosphate buffer (pH 5.35) was added to all wells and the mixture was further kept in the dark at 37 °C for 45 min. Finally, 300 µl of bovine serum albumin solution (0.1%, Serva) in sodium acetate buffer (pH 3.75) was added to the mixture, and the 96-well plate was incubated at room temperature for next 10 min. Changes in turbidity at 600 nm were measured by a microplate reader (BioTek, Winooski, VT, USA). Heparin (WZF, Polfa) was used as a positive control. […]

T2 sequence (P81908 whole entry): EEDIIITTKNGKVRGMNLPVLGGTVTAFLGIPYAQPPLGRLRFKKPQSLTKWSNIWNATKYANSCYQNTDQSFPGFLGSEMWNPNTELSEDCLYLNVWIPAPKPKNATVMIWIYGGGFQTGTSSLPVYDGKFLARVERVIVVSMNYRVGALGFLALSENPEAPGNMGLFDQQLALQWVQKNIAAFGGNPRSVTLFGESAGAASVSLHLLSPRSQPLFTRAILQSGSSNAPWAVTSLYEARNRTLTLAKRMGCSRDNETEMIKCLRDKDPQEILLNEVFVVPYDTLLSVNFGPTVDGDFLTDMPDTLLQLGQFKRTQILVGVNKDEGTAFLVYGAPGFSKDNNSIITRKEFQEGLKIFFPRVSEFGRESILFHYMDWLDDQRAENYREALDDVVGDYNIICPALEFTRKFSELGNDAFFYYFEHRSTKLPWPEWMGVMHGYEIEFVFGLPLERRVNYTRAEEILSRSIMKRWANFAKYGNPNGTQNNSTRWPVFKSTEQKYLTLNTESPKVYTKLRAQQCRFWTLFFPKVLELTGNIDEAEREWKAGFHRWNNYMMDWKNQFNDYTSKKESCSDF
T1 sequence (O42275 24-633): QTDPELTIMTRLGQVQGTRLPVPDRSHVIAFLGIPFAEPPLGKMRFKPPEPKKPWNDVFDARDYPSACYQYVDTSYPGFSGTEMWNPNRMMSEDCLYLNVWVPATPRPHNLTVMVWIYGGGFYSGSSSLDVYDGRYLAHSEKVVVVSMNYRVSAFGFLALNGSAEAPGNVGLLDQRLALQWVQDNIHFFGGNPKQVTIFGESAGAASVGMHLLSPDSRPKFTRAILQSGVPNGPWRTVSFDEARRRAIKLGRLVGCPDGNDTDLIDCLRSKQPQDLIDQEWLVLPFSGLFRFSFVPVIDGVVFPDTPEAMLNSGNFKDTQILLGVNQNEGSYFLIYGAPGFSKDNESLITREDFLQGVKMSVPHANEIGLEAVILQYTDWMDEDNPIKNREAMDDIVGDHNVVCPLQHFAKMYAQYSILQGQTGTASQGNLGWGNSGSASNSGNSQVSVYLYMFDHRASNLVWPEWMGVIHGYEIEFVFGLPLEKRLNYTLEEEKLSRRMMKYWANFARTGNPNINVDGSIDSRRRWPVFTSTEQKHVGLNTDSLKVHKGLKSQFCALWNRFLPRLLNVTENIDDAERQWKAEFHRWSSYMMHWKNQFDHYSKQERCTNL
T3 sequence (P05067 672-713): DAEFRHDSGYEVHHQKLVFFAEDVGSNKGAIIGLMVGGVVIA

Row | Compound | Selectivity for AChE [1] | IC50 [1] [nM] | Selectivity for BuChE [2] | IC50 [2] [nM] | further results
1 | O=C(NCCNc1c2c(nc3ccccc13)CCC2)c1cc(Cl)cc(Cl)c1 [Compound 3a] | 0.15 | 1540 ± 121 | 6.88 | 225 ± 21 | –
2 | O=C(NCCCNc1c2c(nc3ccccc13)CCC2)c1cc(Cl)cc(Cl)c1 [Compound 3b] | 0.56 | 1180 ± 134 | – | 889 ± 27 | –
3 | O=C(NCCCCNc1c2c(nc3ccccc13)CCC2)c1cc(Cl)cc(Cl)c1 [Compound 3c] | 0.11 | 1160 ± 130 | 9.18 | 126 ± 7 | –
4 | O=C(NCCCCCNc1c2c(nc3ccccc13)CCC2)c1cc(Cl)cc(Cl)c1 [Compound 3d] | 5.33 | 211 ± 31 | 0.19 | 1120 ± 180 | –
5 | O=C(NCCCCCCCNc1c2c(nc3ccccc13)CCC2)c1cc(Cl)cc(Cl)c1 [Compound 3f] | 0.46 | 253 ± 42 | 2.16 | 117 ± 27 | –
6 | O=C(NCCCCCCCCNc1c2c(nc3ccccc13)CCC2)c1cc(Cl)cc(Cl)c1 [Compound 3g] | 0.22 | 1480 ± 133 | 4.50 | 330 ± 34 | –
7 | O=C(NCCCCCCCCCNc1c2c(nc3ccccc13)CCC2)c1cc(Cl)cc(Cl)c1 [Compound 3h] | 0.91 | 145 ± 13 | 1.10 | 131 ± 11 | –
8 | O=C(NCCCCCCCCNc1c2c(nc3cc(Cl)ccc13)CCCC2)c1ccc2nc(-c3ccc(Cl)cc3)c3c(c2c1)NCCC3 [DP128, reference compound] | – | – | – | – | anti-amyloid (inhibition) capacity for Aβ42 (Aβ42): 69.2 ± 4.1
9 | CC(CN1c2ccccc2Sc2ccccc21)N(C)C.Cl (stereo not drawn) [Promethazine HCl] | – | – | – | – | Experimental properties pKa [3]: 9.10[54]
10 | Nc1c2c(nc3ccccc13)CCCC2 [Tacrine, 9-amino-1,2,3,4-tetrahydroacridine, reference compound] | – | – | – | – | cell viability (hepatotoxicity, MTT) [4]: 100.67%
11 | Cc1c(C)c2c(c(C)c1O)CCC(C)(C(=O)O)O2 (stereo not drawn) [Trolox, reference compound] | – | – | – | – | % neuroprotection (SH-SY5Y cells [5]): 2.15%; % neuroprotection (SH-SY5Y cells [6]; compound 0.01 µM): 77.16%; % neuroprotection (SH-SY5Y cells [6]; compound 0.1 µM): 91.22%; % neuroprotection (SH-SY5Y cells [6]; compound 1 µM): 96.03%; % neuroprotection (SH-SY5Y cells [6]; compound 10 µM): 95.05%; % neuroprotection (SH-SY5Y cells [7]; compound 0.001 µM): 5.60%; % neuroprotection (SH-SY5Y cells [7]; compound 0.01 µM): 4.67%; % neuroprotection (SH-SY5Y cells [7]; compound 0.1 µM): 0.35%
12 | heparin | – | – | – | – | IC50 (hyaluronidase): 56400 ± 780 nM
